{"source": "ChEMBL document CHEMBL5380816", "about": "“Inclusion of Nitrofurantoin into the Realm of Cancer Chemotherapy via Biology-Oriented Synthesis and Drug Repurposing” (J Med Chem, 2023)", "key": {"[1]": {"tested_on": "Caco-2", "experiment": "Anticancer activity against human Caco-2 cells assessed as round cells incubated at 0.11 uM for 72 hrs by phase contrast inverted microscopic analysis", "type": "functional, cell-based"}, "[2]": {"tested_on": "MCF7", "experiment": "Anticancer activity against human MCF7 cells assessed as smaller cells incubated at 0.11 uM for 72 hrs by phase contrast inverted microscopic analysis", "type": "functional, cell-based"}, "[3]": {"tested_on": "HeLa", "experiment": "Anticancer activity against human HeLa cells assessed as round cells incubated at 0.11 uM for 72 hrs by phase contrast inverted microscopic analysis", "type": "functional, cell-based"}, "[4]": {"tested_on": "Caco-2", "experiment": "Induction of apoptosis in human Caco-2 cells assessed as viable cells incubated at 0.11 uM for 72 hrs by annexin V-FITC based propidium iodide dual staining assay (reference value: 99.89%)", "type": "functional", "settings": "read-out: Activity"}, "[5]": {"tested_on": "HeLa", "experiment": "Induction of apoptosis in human HeLa cells assessed as total apoptotic cells incubated at 0.11 uM for 72 hrs by annexin V-FITC based propidium iodide dual staining assay (reference value: 0 +/- 0.035%)", "type": "functional"}, "[6]": {"tested_on": "HepG2", "experiment": "Induction of apoptosis in human HepG2 cells assessed as total apoptotic cells incubated at 0.11 uM for 72 hrs by annexin V-FITC based propidium iodide dual staining assay (reference value: 0.99 +/- 0.02%)", "type": "functional"}, "[7]": {"tested_on": "MCF7", "experiment": "Induction of apoptosis in human MCF7 cells assessed as early apoptotic cells by measuring bright green patch incubated at 0.11 uM for 72 hrs by acridine orange-ethidium bromide dual staining based fluorescence microscopic analysis", "type": "functional, cell-based"}, "[8]": {"tested_on": "Caco-2", "experiment": "Induction of apoptosis in human Caco-2 cells assessed as late apoptotic cells by measuring orange to red patch incubated at 0.11 uM for 72 hrs by acridine orange-ethidium bromide dual staining based fluorescence microscopic analysis", "type": "functional, cell-based"}, "[9]": {"tested_on": "MCF7", "experiment": "Induction of apoptosis in human MCF7 cells assessed as late apoptotic cells by measuring orange to red patch incubated at 0.11 uM for 72 hrs by acridine orange-ethidium bromide dual staining based fluorescence microscopic analysis", "type": "functional, cell-based"}, "[10]": {"tested_on": "HepG2", "experiment": "Induction of apoptosis in human HepG2 cells assessed as late apoptotic cells by measuring orange to red patch incubated at 0.11 uM for 72 hrs by acridine orange-ethidium bromide dual staining based fluorescence microscopic analysis", "type": "functional, cell-based"}, "[11]": {"tested_on": "Calf thymus DNA", "experiment": "Induction of calf thymus DNA damage assessed as disrupted by DNA by measuring decrease in fluorescence intensity by EvaGreen based fluorescence plate reader analysis", "type": "nucleic-acid assay", "settings": "Bos taurus; dose <= 500.0 µM"}, "[12]": {"tested_on": "MCF7", "experiment": "Anticancer activity against human MCF7 cells incubated for 24 hrs by MTT assay", "type": "functional, cell-based", "settings": "MCF7, 24 h"}, "[13]": {"organism": "Homo sapiens", "experiment": "Selectivity index, ratio IC50 for human MDA-MB-231 cells to IC50 for human MCF7 cells"}, "[14]": {"tested_on": "HepG2", "experiment": "Induction of apoptosis in human HepG2 cells assessed as pro-oxidant effect by measuring free radical generation measured at 0.11 uM after 72 hrs", "type": "functional, cell-based"}, "[15]": {"tested_on": "MCF7", "experiment": "Induction of apoptosis in human MCF7 cells assessed as late apoptotic cells incubated at 0.017 uM for 72 hrs by annexin V-FITC based propidium iodide dual staining assay (reference value: 0.01%)", "type": "functional"}, "[16]": {"tested_on": "HeLa", "experiment": "Induction of apoptosis in human HeLa cells assessed as viable cells incubated at 0.017 uM for 72 hrs by annexin V-FITC based propidium iodide dual staining assay (reference value: 97.23%)", "type": "functional", "settings": "read-out: Activity"}, "[17]": {"tested_on": "HepG2", "experiment": "Induction of apoptosis in human HepG2 cells assessed as late apoptotic cells incubated at 0.017 uM for 72 hrs by annexin V-FITC based propidium iodide dual staining assay (reference value: 0.66%)", "type": "functional"}, "[18]": {"tested_on": "HepG2", "experiment": "Induction of apoptosis in human HepG2 cells assessed as necrotic cells incubated at 0.017 uM for 72 hrs by annexin V-FITC based propidium iodide dual staining assay (reference value: 0.33%)", "type": "functional"}, "[19]": {"tested_on": "Caco-2", "experiment": "Induction of apoptosis in human Caco-2 cells assessed as total apoptotic cells incubated at 0.017 uM for 72 hrs by annexin V-FITC based propidium iodide dual staining assay (reference value: 0.04 +/- 0.005%)", "type": "functional"}, "[20]": {"tested_on": "Caco-2", "experiment": "Induction of apoptosis in human Caco-2 cells assessed as viable cells by measuring green uniform patch incubated at 0.017 uM for 72 hrs by acridine orange-ethidium bromide dual staining based fluorescence microscopic analysis", "type": "functional, cell-based"}, "[21]": {"tested_on": "HeLa", "experiment": "Induction of apoptosis in human HeLa cells assessed as viable cells by measuring green uniform patch incubated at 0.017 uM for 72 hrs by acridine orange-ethidium bromide dual staining based fluorescence microscopic analysis", "type": "functional, cell-based"}, "[22]": {"tested_on": "Caco-2", "experiment": "Anticancer activity against human Caco-2 cells assessed as absence of normal spindle shape incubated at 0.097uM for 72 hrs by phase contrast inverted microscopic analysis", "type": "functional, cell-based"}, "[23]": {"tested_on": "HepG2", "experiment": "Anticancer activity against human HepG2 cells assessed as round cells incubated at 0.097uM for 72 hrs by phase contrast inverted microscopic analysis", "type": "functional, cell-based"}, "[24]": {"tested_on": "HeLa", "experiment": "Induction of apoptosis in human HeLa cells assessed as viable cells incubated at 0.097 uM for 72 hrs by annexin V-FITC based propidium iodide dual staining assay (reference value: 97.23%)", "type": "functional", "settings": "read-out: Activity"}, "[25]": {"tested_on": "Caco-2", "experiment": "Induction of apoptosis in human Caco-2 cells assessed as total apoptotic cells incubated at 0.097 uM for 72 hrs by annexin V-FITC based propidium iodide dual staining assay (reference value: 0.04 +/- 0.005%)", "type": "functional"}, "[26]": {"tested_on": "Caco-2", "experiment": "Induction of apoptosis in human Caco-2 cells assessed as early apoptotic cells by measuring bright green patch incubated at 0.097 uM for 72 hrs by acridine orange-ethidium bromide dual staining based fluorescence microscopic analysis", "type": "functional, cell-based"}, "[27]": {"tested_on": "MCF7", "experiment": "Induction of apoptosis in human MCF7 cells assessed as early apoptotic cells by measuring bright green patch incubated at 0.097 uM for 72 hrs by acridine orange-ethidium bromide dual staining based fluorescence microscopic analysis", "type": "functional, cell-based"}, "[28]": {"tested_on": "HepG2", "experiment": "Induction of apoptosis in human HepG2 cells assessed as early apoptotic cells by measuring bright green patch incubated at 0.097 uM for 72 hrs by acridine orange-ethidium bromide dual staining based fluorescence microscopic analysis", "type": "functional, cell-based"}, "[29]": {"tested_on": "HeLa", "experiment": "Induction of oxidative stress in human HeLa cells assessed as cell death by measuring redox alteration fluorescence incubated at 0.097 uM for 72 hrs in presence of dihydro dichlorofluorescein diacetate by DCFH-DA based flow cytometric analysis relative to control", "type": "functional"}, "[30]": {"tested_on": "HepG2", "experiment": "Anticancer activity against human HepG2 cells assessed as smaller cells incubated at 0.098uM for 72 hrs by phase contrast inverted microscopic analysis", "type": "functional, cell-based"}, "[31]": {"tested_on": "MCF7", "experiment": "Induction of apoptosis in human MCF7 cells assessed as early apoptotic cells incubated at 0.098 uM for 72 hrs by annexin V-FITC based propidium iodide dual staining assay (reference value: 0.06%)", "type": "functional"}, "[32]": {"tested_on": "HeLa", "experiment": "Induction of apoptosis in human HeLa cells assessed as necrotic cells incubated at 0.098 uM for 72 hrs by annexin V-FITC based propidium iodide dual staining assay (reference value: 0%)", "type": "functional"}, "[33]": {"tested_on": "HepG2", "experiment": "Induction of apoptosis in human HepG2 cells assessed as viable cells incubated at 0.098 uM for 72 hrs by annexin V-FITC based propidium iodide dual staining assay (reference value: 97.27%)", "type": "functional", "settings": "read-out: Activity"}, "[34]": {"tested_on": "HepG2", "experiment": "Induction of apoptosis in human HepG2 cells assessed as necrotic cells incubated at 0.098 uM for 72 hrs by annexin V-FITC based propidium iodide dual staining assay (reference value: 0.33%)", "type": "functional"}, "[35]": {"tested_on": "HeLa", "experiment": "Induction of oxidative stress in human HeLa cells assessed as cell death by measuring redox alteration fluorescence incubated at 0.11 uM for 72 hrs in presence of dihydro dichlorofluorescein diacetate by DCFH-DA based flow cytometric analysis relative to control", "type": "functional"}}, "note": "The source made the active and inactive calls. The rule behind the calls is not given here.", "data": [{"smiles": "C#CCN1C(=O)CN(/N=C/c2ccc([N+](=O)[O-])o2)C1=O", "values": [{"measurement": "Activity", "setting": "[1]", "value": "Active"}, {"measurement": "Activity", "setting": "[2]", "value": "Active"}, {"measurement": "Activity", "setting": "[3]", "value": "Active"}, {"measurement": "viability at 0.11 µM", "setting": "[4]", "value": 49.4, "unit": "%"}, {"measurement": "Activity", "setting": "[5]", "value": 25.17, "unit": "%"}, {"measurement": "Activity", "setting": "[6]", "value": 63.15, "unit": "%"}, {"measurement": "Activity", "setting": "[7]", "value": "Active"}, {"measurement": "Activity", "setting": "[8]", "value": "Active"}, {"measurement": "Activity", "setting": "[9]", "value": "Active"}, {"measurement": "Activity", "setting": "[10]", "value": "Active"}, {"measurement": "Activity", "setting": "[11]", "value": "Dose-Dependent Effect"}, {"measurement": "IC50", "setting": "[12]", "value": 120, "unit": "µM"}, {"measurement": "Ratio IC50", "setting": "[13]", "value": 2}, {"measurement": "Activity", "setting": "[14]", "value": "Active"}]}, {"smiles": "O=c1[nH]cc(F)c(=O)[nH]1", "note": "[FLUOROURACIL]", "values": [{"measurement": "Activity", "setting": "[15]", "value": 2.26, "unit": "%"}, {"measurement": "viability at 0.017 µM", "setting": "[16]", "value": 88.1, "unit": "%"}, {"measurement": "Activity", "setting": "[17]", "value": 2.34, "unit": "%"}, {"measurement": "Activity", "setting": "[18]", "value": 1.56, "unit": "%"}, {"measurement": "Activity", "setting": "[19]", "value": 3.68, "unit": "%"}, {"measurement": "Activity", "setting": "[20]", "value": "Active"}, {"measurement": "Activity", "setting": "[21]", "value": "Active"}]}, {"smiles": "NS(=O)(=O)c1ccc(-n2cc(CN3C(=O)CN(/N=C/c4ccc([N+](=O)[O-])o4)C3=O)nn2)cc1", "values": [{"measurement": "Activity", "setting": "[22]", "value": "Active"}, {"measurement": "Activity", "setting": "[23]", "value": "Active"}, {"measurement": "viability at 0.097 µM", "setting": "[24]", "value": 43.3, "unit": "%"}, {"measurement": "Activity", "setting": "[25]", "value": 36.26, "unit": "%"}, {"measurement": "Activity", "setting": "[26]", "value": "Active"}, {"measurement": "Activity", "setting": "[27]", "value": "Active"}, {"measurement": "Activity", "setting": "[28]", "value": "Active"}, {"measurement": "Activity", "setting": "[29]", "value": 53.5, "unit": "%"}]}, {"smiles": "O=C(CN1C(=O)CN(/N=C/c2ccc([N+](=O)[O-])o2)C1=O)c1ccc(Cl)cc1", "values": [{"measurement": "Activity", "setting": "[30]", "value": "Active"}, {"measurement": "Activity", "setting": "[31]", "value": 4.77, "unit": "%"}, {"measurement": "Activity", "setting": "[32]", "value": 1.16, "unit": "%"}, {"measurement": "viability at 0.098 µM", "setting": "[33]", "value": 55, "unit": "%"}, {"measurement": "Activity", "setting": "[34]", "value": 3.85, "unit": "%"}, {"measurement": "Activity", "setting": "[35]", "value": 32.41, "unit": "%"}]}]}
